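A five-concentration, 48-hour dose response in 96-well plates underlies each endpoint, interpolated linearly between surrounding concentrations. GI50: concentration for 50% inhibition of growth.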 Active and inactive are the calls of the source. Rule as the data show it: active = GI50 up to about 1.1 µM and inactive = higher.
Legend:
Assay in all cases: NCI-60 cell line screen, 48 h
[1] = test system: CCRF-CEM
[2] = test system: EKVX
[3] = test system: HCT-15
[4] = test system: HOP-92
[5] = test system: HT-29
[6] = test system: K562
[7] = test system: LOX IMVI
[8] = test system: MOLT-4
[9] = test system: OVCAR-3
[10] = test system: OVCAR-4
[11] = test system: OVCAR-5
[12] = test system: RPMI-8226
[13] = test system: SNB-19
[14] = test system: SW-620
[15] = test system: UO-31
[16] = test system: Malme-3M
[17] = test system: SF-295
[18] = test system: SK-OV-3
[19] = test system: SNB-75
[20] = test system: A498

SMILES | GI50 [1] | GI50 [2] | GI50 [3] | GI50 [4] | GI50 [5] | GI50 [6] | GI50 [7] | GI50 [8] | GI50 [9] | GI50 [10] | GI50 [11] | GI50 [12] | GI50 [13] | GI50 [14] | GI50 [15] | GI50 [16] | GI50 [17] | GI50 [18] | GI50 [19] | GI50 [20]
COc1ccc(C(=O)NNC(=O)c2nsc3ccccc23)cc1 | 24.7 µM (inactive) | 27.2 µM (inactive) | 41.7 µM | 40.1 µM (inactive) | 61.7 µM (inactive) | 39.4 µM (inactive) | 58.2 µM (inactive) | 34 µM (inactive) | 30.8 µM (inactive) | 68.9 µM (inactive) | > 100 µM (inactive) | 52.5 µM (inactive) | > 100 µM (inactive) | > 100 µM (inactive) | > 100 µM (inactive) | – | – | – | – | –
CCOC(=O)C1CCn2c(nc3c2c(=O)n(C)c(=O)n3C)S1 (stereo unspecified) | > 100 µM (inactive) | > 100 µM (inactive) | > 100 µM | – | > 100 µM (inactive) | > 100 µM (inactive) | > 100 µM (inactive) | > 100 µM (inactive) | > 100 µM (inactive) | > 100 µM (inactive) | > 100 µM (inactive) | > 100 µM (inactive) | > 100 µM (inactive) | > 100 µM (inactive) | – | > 100 µM (inactive) | > 100 µM (inactive) | > 100 µM (inactive) | > 100 µM (inactive) | –
CCC(=O)NC(Nc1cccc(F)c1)(C(F)(F)F)C(F)(F)F | 60 µM (inactive) | 67.3 µM (inactive) | > 100 µM | > 100 µM (inactive) | > 100 µM (inactive) | > 100 µM (inactive) | > 100 µM (inactive) | 57 µM (inactive) | > 100 µM (inactive) | > 100 µM (inactive) | > 100 µM (inactive) | > 100 µM (inactive) | > 100 µM (inactive) | > 100 µM (inactive) | 70.1 µM (inactive) | – | > 100 µM (inactive) | > 100 µM (inactive) | > 100 µM (inactive) | –
O=C(NN1C(=O)CSC1c1cccc(F)c1)c1ccncc1 (stereo unspecified) | > 100 µM (inactive) | > 100 µM (inactive) | > 100 µM | – | > 100 µM (inactive) | > 100 µM (inactive) | > 100 µM (inactive) | > 100 µM (inactive) | – | > 100 µM (inactive) | > 100 µM (inactive) | > 100 µM (inactive) | > 100 µM (inactive) | > 100 µM (inactive) | > 100 µM (inactive) | > 100 µM (inactive) | > 100 µM (inactive) | > 100 µM (inactive) | > 100 µM (inactive) | > 100 µM (inactive)
Nc1ccccc1C(=O)N/N=C1\C(=O)Nc2ccccc21 | > 100 µM (inactive) | > 100 µM (inactive) | > 100 µM | – | > 100 µM (inactive) | > 100 µM (inactive) | – | > 100 µM (inactive) | > 100 µM (inactive) | > 100 µM (inactive) | > 100 µM (inactive) | – | 35.4 µM (inactive) | – | > 100 µM (inactive) | > 100 µM (inactive) | > 100 µM (inactive) | > 100 µM (inactive) | 23.9 µM (inactive) | 33.2 µM (inactive)
Cc1n[nH]c(CC#N)n1 | > 100 µM (inactive) | > 100 µM (inactive) | > 100 µM | > 100 µM (inactive) | > 100 µM (inactive) | > 100 µM (inactive) | > 100 µM (inactive) | > 100 µM (inactive) | > 100 µM (inactive) | > 100 µM (inactive) | > 100 µM (inactive) | > 100 µM (inactive) | > 100 µM (inactive) | > 100 µM (inactive) | > 100 µM (inactive) | – | > 100 µM (inactive) | > 100 µM (inactive) | > 100 µM (inactive) | –
CC1CC2=C(S(=O)(=O)c3ccccc3)CC(S(=O)(=O)c3ccccc3)(S(=O)(=O)c3ccccc3)CC21 (stereo unspecified) | 27.4 µM (inactive) | > 100 µM (inactive) | > 100 µM | – | > 100 µM (inactive) | 38.7 µM (inactive) | > 100 µM (inactive) | > 100 µM (inactive) | > 100 µM (inactive) | > 100 µM (inactive) | > 100 µM (inactive) | 88.1 µM (inactive) | > 100 µM (inactive) | > 100 µM (inactive) | > 100 µM (inactive) | – | > 100 µM (inactive) | > 100 µM (inactive) | 25.1 µM (inactive) | > 100 µM (inactive)
OC1CCOc2ccccc21 (stereo unspecified) | > 100 µM (inactive) | > 100 µM (inactive) | > 100 µM | – | > 100 µM (inactive) | > 100 µM (inactive) | > 100 µM (inactive) | > 100 µM (inactive) | > 100 µM (inactive) | > 100 µM (inactive) | > 100 µM (inactive) | > 100 µM (inactive) | > 100 µM (inactive) | > 100 µM (inactive) | > 100 µM (inactive) | > 100 µM (inactive) | – | > 100 µM (inactive) | – | –

From ChEMBL document CHEMBL1201862, “PubChem BioAssay data set” (2004)
